Results taken from ChEMBL document CHEMBL5390237, “Discovery of Selective Histone Deacetylase 1 and 2 Inhibitors: Screening of a Focused Library Constructed by Click Chemistry, Kinetic Binding Analysis, and Biological Evaluation” (J Med Chem, 2023).

biological target: Histone deacetylase 2 (Homo sapiens, UniProt Q92769); test: Inhibition of full-length recombinant human C-terminal GST tagged HDAC2 expressed in Sf9 insect cells using aminoluciferin peptide substrate at 100 nM preincubated for 3 hrs followed by substrate addition and measured after 30 mins by HDAC-Glo I/II chemiluminescence assay; settings: time 3.5 hrs
Sequence (Q92769 whole entry): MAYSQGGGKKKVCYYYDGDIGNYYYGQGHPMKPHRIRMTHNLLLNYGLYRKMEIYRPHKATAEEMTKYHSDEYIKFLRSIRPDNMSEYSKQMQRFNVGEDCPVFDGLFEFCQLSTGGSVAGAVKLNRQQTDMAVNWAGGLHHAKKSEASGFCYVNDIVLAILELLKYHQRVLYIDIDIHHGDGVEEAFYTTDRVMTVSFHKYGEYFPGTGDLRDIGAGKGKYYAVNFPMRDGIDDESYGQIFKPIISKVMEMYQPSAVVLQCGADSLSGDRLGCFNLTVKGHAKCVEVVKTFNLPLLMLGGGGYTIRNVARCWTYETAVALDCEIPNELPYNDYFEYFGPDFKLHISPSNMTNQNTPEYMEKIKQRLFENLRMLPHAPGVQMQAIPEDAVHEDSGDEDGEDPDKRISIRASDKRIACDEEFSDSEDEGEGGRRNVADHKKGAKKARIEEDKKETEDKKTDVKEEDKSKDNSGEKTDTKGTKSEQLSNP

Row | SMILES | inhibition [%]
1 | Nc1ccc(-c2cccs2)cc1NC(=O)c1ccc(-c2cn(CCc3ccccc3C(F)(F)F)nn2)s1 | 0
2 | Cc1ccc(-n2cc(C(=O)Nc3cc(-c4ccc(F)cc4)ccc3N)nn2)cc1C | 11
3 | COc1ccccc1CCn1cc(C(=O)Nc2cc(-c3cccs3)ccc2N)nn1 | 6
4 | Nc1ccc(-c2cccnc2)cc1NC(=O)CCc1cn(CCN2CCc3ccccc3C2)nn1 | 5
5 | COc1ccc(Cn2cc(CCC(=O)Nc3cc(-c4ccsc4)ccc3N)nn2)cc1 | 24
6 | Nc1ccc(-c2ccccc2)cc1NC(=O)CCc1cn(CCc2ccc(C(=O)O)cc2)nn1 | 33
7 | Nc1ccc(-c2cccs2)cc1NC(=O)c1ccc(-c2cn(CCc3ccc(F)cc3)nn2)cc1 | 14
8 | Nc1ccc(-c2cccs2)cc1NC(=O)c1cn(/C=C/c2ccccc2)nn1 | 12
9 | Nc1ccc(-c2ccsc2)cc1NC(=O)CCc1cn(CC2CCCCC2)nn1 | 0
10 | COc1ccccc1CCn1cc(CCC(=O)Nc2cc(-c3ccc(F)cc3)ccc2N)nn1 | 10
11 | Nc1ccc(-c2ccc(F)cc2)cc1NC(=O)c1cn(CCc2ccccc2[N+](=O)[O-])nn1 | 12
12 | Nc1ccc(-c2ccccc2)cc1NC(=O)CCc1cn(CC(=O)Nc2ccc(F)cc2)nn1 | 11
13 | Nc1ccc(-c2cccs2)cc1NC(=O)c1ccc(-c2cn(Cc3ccc(OC(F)(F)F)cc3)nn2)s1 | 0
14 | Nc1ccc(-c2ccc(F)cc2)cc1NC(=O)CCc1cn(CC(=O)Nc2ccc(F)cc2)nn1 | 16
15 | Nc1ccc(-c2ccccc2)cc1NC(=O)c1cn(-c2ccc([N+](=O)[O-])cc2)nn1 | 0
16 | Nc1ccc(-c2ccsc2)cc1NC(=O)CCc1cn(CCc2ccccc2)nn1 | 43
17 | Nc1ccc(-c2ccsc2)cc1NC(=O)c1cn(CCc2ccsc2)nn1 | 0
18 | Nc1ccc(-c2ccccc2)cc1NC(=O)CCc1cn(CCc2ccc([N+](=O)[O-])cc2)nn1 | 13
19 | Nc1ccc(-c2ccccc2)cc1NC(=O)CCc1cn(-c2ccc(I)cc2)nn1 | 0
20 | Nc1ccc(-c2cccs2)cc1NC(=O)c1cccc(-c2cn(CCc3ccc(F)cc3)nn2)c1 | 0
21 | Nc1ccc(-c2cccs2)cc1NC(=O)CCc1cn(-c2ccc(O)cc2)nn1 | 12
22 | Nc1ccc(-c2cccs2)cc1NC(=O)c1cccc(-c2cn(-c3ccc(O)cc3)nn2)c1 | 13
23 | Nc1ccc(-c2ccsc2)cc1NC(=O)c1cn(Cc2nc3ccccc3[nH]2)nn1 | 25
24 | Nc1ccc(-c2ccc(F)cc2)cc1NC(=O)c1cn(Cc2cccc(C(=O)O)c2)nn1 | 0

Row | SMILES | inhibition [%]
25 | Nc1ccc(-c2ccc(F)cc2)cc1NC(=O)CCc1cn(CCc2cccc([N+](=O)[O-])c2)nn1 | 41
26 | Nc1ccc(-c2ccccc2)cc1NC(=O)CCc1cn(-c2ccc(O)cc2)nn1 | 3
27 | Nc1ccc(-n2cc(CCC(=O)Nc3cc(-c4ccccc4)ccc3N)nn2)cc1 | 18
28 | Nc1ccc(-c2ccccc2)cc1NC(=O)c1cn(CCc2ccccc2C(F)(F)F)nn1 | 0
29 | Nc1ccc(-c2ccc(F)cc2)cc1NC(=O)CCc1cn(Cc2ccc(Oc3ccccc3)cc2)nn1 | 0
30 | COc1ccccc1CCn1cc(C(=O)Nc2cc(-c3ccc(F)cc3)ccc2N)nn1 | 5
31 | Nc1ccc(-c2ccccc2)cc1NC(=O)c1cn(CCc2ccccc2[N+](=O)[O-])nn1 | 0
32 | Nc1ccc(-c2cccs2)cc1NC(=O)c1cn(CCc2cccc(F)c2)nn1 | 0
33 | Nc1ccc(-c2cccs2)cc1NC(=O)c1cn(CC23CC4CC(CC(C4)C2)C3)nn1 | 0
34 | Nc1ccc(-c2cccs2)cc1NC(=O)c1ccc(-c2cn(CC3CCCCC3)nn2)cc1 | 0
35 | Nc1ccc(-c2ccccc2)cc1NC(=O)c1cn(CCCCCC(=O)O)nn1 | 0
36 | Nc1ccc(-c2cccs2)cc1NC(=O)c1ccc(-c2cn(Cc3cccc4ccccc34)nn2)cc1 | 14
37 | Nc1ccc(-c2ccc(F)cc2)cc1NC(=O)c1cn(-c2cccc3ccccc23)nn1 | 4
38 | Nc1ccc(-c2cccs2)cc1NC(=O)c1ccc(-c2cn(CCN3CCc4ccccc4C3)nn2)cc1 | 0
39 | Nc1ccc(-c2ccc(F)cc2)cc1NC(=O)CCc1cn(CCc2ccc(C(F)(F)F)cc2)nn1 | 1
40 | Nc1ccc(-c2cccs2)cc1NC(=O)c1ccc(-c2cn(CCC34CC5CC(CC(C5)C3)C4)nn2)s1 | 0
41 | Nc1ccc(-c2ccc(F)cc2)cc1NC(=O)CCc1cn(CCc2ccccc2Cl)nn1 | 4
42 | Nc1ccc(-c2ccccc2)cc1NC(=O)c1cn(CCc2ccccc2Cl)nn1 | 0
43 | Nc1ccc(-c2ccsc2)cc1NC(=O)CCc1cn(Cc2nc3ccccc3[nH]2)nn1 | 25
44 | Nc1ccc(-c2ccsc2)cc1NC(=O)c1cn(-c2ccc([N+](=O)[O-])cc2)nn1 | 0
45 | Nc1ccc(-c2cccs2)cc1NC(=O)c1cn(Cc2cc3ccccc3s2)nn1 | 8
46 | Nc1ccc(-c2cccs2)cc1NC(=O)CCc1cn(CCc2ccccc2[N+](=O)[O-])nn1 | 24
47 | Nc1ccc(-c2ccccc2)cc1NC(=O)c1cn(Cc2ccc(OC(F)(F)F)cc2)nn1 | 0
48 | Cc1csc(CCn2cc(C(=O)Nc3cc(-c4ccc(F)cc4)ccc3N)nn2)n1 | 10

Row | SMILES | inhibition [%]
49 | Nc1ccc(-c2cccs2)cc1NC(=O)c1ccc(-c2cn(CCc3cccc(F)c3)nn2)cc1 | 22
50 | Cc1cccc(C)c1NC(=O)Cn1cc(-c2ccc(C(=O)Nc3cc(-c4cccs4)ccc3N)cc2)nn1 | 52
51 | Nc1ccc(-c2cccs2)cc1NC(=O)c1ccc(-c2cn(Cc3cc4ccccc4s3)nn2)cc1 | 0
52 | Nc1ccc(-c2ccc(F)cc2)cc1NC(=O)CCc1cn(CC(=O)c2ccccc2)nn1 | 19
53 | Cc1ccccc1CCn1cc(-c2ccc(C(=O)Nc3cc(-c4cccs4)ccc3N)cc2)nn1 | 0
54 | Nc1ccc(-c2ccc(F)cc2)cc1NC(=O)c1cn(CCC2CCCCC2)nn1 | 5
55 | Nc1ccc(-c2ccccc2)cc1NC(=O)CCc1cn(CCc2ccc(F)cc2)nn1 | 9
56 | Nc1ccc(-c2ccsc2)cc1NC(=O)CCc1cn(CCc2cccc([N+](=O)[O-])c2)nn1 | 36
57 | Nc1ccc(-c2cccnc2)cc1NC(=O)CCc1cn(C[S+]([O-])c2ccccc2)nn1 (centres undefined) | 0
58 | Nc1ccc(-c2ccsc2)cc1NC(=O)CCc1cn(Cc2ccc3ccccc3c2)nn1 | 16
59 | Nc1ccc(-c2ccsc2)cc1NC(=O)CCc1cn(CCC2CCCC2)nn1 | 0
60 | Nc1ccc(-c2cccs2)cc1NC(=O)c1cccc(-c2cn(-c3ccc(I)cc3)nn2)c1 | 7
61 | Cc1cccc(C)c1NC(=O)Cn1cc(-c2ccc(C(=O)Nc3cc(-c4cccs4)ccc3N)s2)nn1 | 48
62 | Nc1ccc(-c2cccs2)cc1NC(=O)c1ccc(-c2cn(CCc3c[nH]c4ccccc34)nn2)s1 | 38
63 | Nc1ccc(-c2ccccc2)cc1NC(=O)c1cn(Cc2ccc3ccccc3n2)nn1 | 6
64 | Nc1ccc(-c2ccsc2)cc1NC(=O)c1cn(CCc2cccc(Cl)c2)nn1 | 0
65 | Nc1ccc(-c2ccc(F)cc2)cc1NC(=O)c1cn(CCc2cccc(F)c2)nn1 | 0
66 | Cc1cccc(C)c1NC(=O)Cn1cc(C(=O)Nc2cc(-c3ccccc3)ccc2N)nn1 | 9
67 | COc1ccc(CCn2cc(CCC(=O)Nc3cc(-c4ccsc4)ccc3N)nn2)cc1 | 29
68 | Nc1ccc(-c2ccsc2)cc1NC(=O)c1cn(CCc2ccc([N+](=O)[O-])cc2)nn1 | 0
69 | Nc1ccc(-c2cccs2)cc1NC(=O)c1ccc(-c2cn(CCc3ccccc3)nn2)cc1 | 65
70 | Nc1ccc(-c2ccccc2)cc1NC(=O)c1cn(CCc2ccc(F)cc2)nn1 | 0
71 | Cc1ccccc1CCn1cc(-c2cccc(C(=O)Nc3cc(-c4cccs4)ccc3N)c2)nn1 | 0
72 | Nc1ccc(-c2cccs2)cc1NC(=O)c1ccc(-c2cn(CCc3cccc(Cl)c3)nn2)cc1 | 22

Row | SMILES | inhibition [%]
73 | Nc1ccc(-c2cccs2)cc1NC(=O)c1cn(CCCCCc2ccccc2)nn1 | 1
74 | Nc1ccc(-c2cccs2)cc1NC(=O)c1ccc(-c2cn(CCc3ccc(F)cc3)nn2)s1 | 18
75 | Nc1ccc(-c2cccnc2)cc1NC(=O)CCc1cn(CCc2ccc(C(=O)O)cc2)nn1 | 9
76 | Cc1ccc(-n2cc(C(=O)Nc3cc(-c4ccsc4)ccc3N)nn2)cc1C | 0
77 | Nc1ccc(-c2cccs2)cc1NC(=O)CCc1cn(CCc2ccsc2)nn1 | 13
78 | Nc1ccc(-c2cccs2)cc1NC(=O)CCc1cn(CCc2cccc3ccccc23)nn1 | 0
79 | Nc1ccc(-c2ccc(F)cc2)cc1NC(=O)c1cn(-c2ccc(I)cc2)nn1 | 7
80 | CCc1ccc(Cn2cc(C(=O)Nc3cc(-c4ccc(F)cc4)ccc3N)nn2)cc1 | 0
81 | Nc1ccc(-c2cccs2)cc1NC(=O)c1cccc(-c2cn(CCc3cccc([N+](=O)[O-])c3)nn2)c1 | 4
82 | COc1ccc(Cn2cc(CCC(=O)Nc3cc(-c4cccnc4)ccc3N)nn2)cc1 | 10
83 | Nc1ccc(-c2cccs2)cc1NC(=O)c1cccc(-c2cn(CCc3ccccc3)nn2)c1 | 17
84 | Nc1ccc(-c2cccs2)cc1NC(=O)c1cn(CC(=O)Nc2ccc(F)cc2)nn1 | 0
85 | Nc1ccc(-c2ccc(F)cc2)cc1NC(=O)CCc1cn(CCN2CCOCC2)nn1 | 0
86 | Nc1ccc(-c2ccsc2)cc1NC(=O)CCc1cn(/C=C/c2ccccc2)nn1 | 2
87 | Nc1ccc(-c2ccccc2)cc1NC(=O)CCc1cn(CCN2CCOCC2)nn1 | 0
88 | Nc1ccc(-c2ccccc2)cc1NC(=O)c1cn(CCc2ccc(Cl)cc2)nn1 | 0
89 | Nc1ccc(-c2cccs2)cc1NC(=O)c1cn(-c2ccc(I)cc2)nn1 | 0
90 | Nc1ccc(-c2cccs2)cc1NC(=O)CCc1cn(CCCCC(=O)O)nn1 | 2
91 | Nc1ccc(-c2ccsc2)cc1NC(=O)c1cn(CCc2cccc(F)c2)nn1 | 0
92 | Nc1ccc(-c2ccc(F)cc2)cc1NC(=O)c1cn(Cc2ccc(C(=O)O)cc2)nn1 | 65
93 | Nc1ccc(-c2ccccc2)cc1NC(=O)c1cn(CCC2CCCCC2)nn1 | 0
94 | Nc1ccc(-c2cccs2)cc1NC(=O)c1ccc(-c2cn(Cc3cccc4ccccc34)nn2)s1 | 13
